According to the supplement of paper PMC10307832:

Experiments:
Test in all cases: relative viability (nuclei count vs DMSO), 5 days (fraction); higher = more cells survive
[1] = compound: CC1=CC=C(C=C1)C(=O)CN2C3=C(CCCC3)SC2=N [Pifithrin_alpha] + C[C@]1(O)C[C@@H](c2nc(-c3ccc4ccc(-c5ccccc5)nc4c3)c3c(N)nccn32)C1 [Linsitinib] (partner 1 µM)
Summary of the method: (§1)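 Relative viability was taken as the ratio of nuclei in treated wells to nuclei in vehicle wells. Lung cancer cell lines in 1536-well plates received compounds by pin tool one day after seeding, either one drug alone or a fixed anchor-drug dose plus five library-drug doses (not always all listed) in √10 steps. Nuclei were counted on 4× images after 5 days of treatment, and values are medians of duplicate plates.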

[2] = compound: CC1=CC=C(C=C1)C(=O)CN2C3=C(CCCC3)SC2=N [Pifithrin_alpha] + CC(C)C[C@H](NC(=O)[C@H](Cc1ccccc1)NC(=O)c1cnccn1)B(O)O [Bortezomib] (partner 0.002 µM)
Summary of the method: as §1

[3] = compound: CC1=CC=C(C=C1)C(=O)CN2C3=C(CCCC3)SC2=N [Pifithrin_alpha] + N=C(N)NC(=N)NCCc1ccccc1 [Phenformin] (partner 250 µM)
Summary of the method: as §1

[4] = compound: Nc1nc(Nc2ccc3c(c2)CC[C@@H](N2CCCC2)CC3)nn1-c1cc2c(nn1)-c1ccccc1CCC2 [Bemcentinib] + Cc1nc(Nc2ncc(C(=O)Nc3c(C)cccc3Cl)s2)cc(N2CCN(CCO)CC2)n1 [Dasatinib] (partner 0.075 µM)
Summary of the method: as §1

Cell Line | relative viability ([1]; first compound 1 µM) | relative viability ([1]; first compound 3.162 µM) | relative viability ([1]; first compound 10 µM) | relative viability ([1]; first compound 100 µM) | relative viability ([2]; first compound 1 µM) | relative viability ([2]; first compound 3.162 µM) | relative viability ([2]; first compound 10 µM) | relative viability ([2]; first compound 31.62 µM) | relative viability ([2]; first compound 100 µM) | relative viability ([3]; first compound 1 µM) | relative viability ([3]; first compound 3.162 µM) | relative viability ([3]; first compound 10 µM) | relative viability ([3]; first compound 31.62 µM) | relative viability ([3]; first compound 100 µM) | relative viability ([4]; first compound 0.04 µM) | relative viability ([4]; first compound 0.1265 µM) | relative viability ([4]; first compound 0.4 µM) | relative viability ([4]; first compound 4 µM) | relative viability ([1]; first compound 31.62 µM) | relative viability ([4]; first compound 1.265 µM)
HCC-78 | 0.481 | 0.54 | 0.513 | 0.584 | 0.415 | 0.394 | 0.472 | 0.418 | 0.477 | 0.433 | 0.727 | 0.664 | 0.645 | 0.69 | 0.403 | 0.201 | 0.433 | 0.363 |  | 
NCI-H2126 | 0.696 | 0.695 | 0.68 | 0.682 | 1.11 | 1.09 | 0.925 | 0.896 | 0.94 | 0.475 | 0.498 | 0.499 | 0.464 | 0.427 | 0.559 | 0.67 | 0.646 | 0.699 | 0.661 | 0.71
SK-LU-1 | 1.08 | 1.16 | 1.26 | 0.832 | 0.891 | 1.4 | 1.41 | 0.574 | 1.39 | 0.511 | 0.624 | 0.49 |  | 0.625 | 0.181 | 0.201 | 0.197 | 0.155 | 0.769 | 0.191
LC-2-ad | 0.849 | 0.846 | 0.804 | 0.767 | 0.892 | 1.04 | 0.976 | 0.767 | 0.768 |  | 0.601 | 0.646 |  | 0.588 | 0.308 | 0.597 | 0.659 | 0.557 | 0.547 | 0.669
NCI-H23 | 0.543 | 0.546 | 0.567 | 0.515 | 0.917 | 0.978 | 1.06 | 0.61 | 0.875 | 0.853 | 0.734 | 0.764 |  | 0.753 | 0.476 | 0.884 | 0.985 | 0.828 | 0.443 | 0.632
NCI-H2228 | 1.04 | 0.606 | 0.583 | 0.555 | 0.919 | 1.03 | 0.926 | 0.86 | 0.722 | 0.312 | 0.265 | 0.374 | 0.256 | 0.205 | 0.14 | 0.566 | 0.532 | 0.538 | 0.544 | 0.526
SW 1573 | 0.82 | 0.713 | 0.698 | 0.758 | 1.01 | 0.98 | 1.13 | 0.899 | 1.14 | 0.357 | 0.39 | 0.436 | 0.37 | 0.346 | 0.411 | 0.52 | 0.611 | 0.636 | 0.768 | 0.477
HCC-15 | 0.937 | 0.977 | 0.868 | 0.894 | 1.1 | 1.11 | 0.919 | 0.772 | 1.1 | 0.487 | 0.449 | 0.435 | 0.249 | 0.279 | 0.628 | 0.696 | 0.708 | 0.732 | 0.593 | 0.669
H3255 | 1.02 | 0.969 | 0.919 | 0.962 | 0.584 | 0.76 | 0.711 | 0.416 | 0.421 | 0.364 | 0.97 | 0.384 | 0.389 | 0.342 | 0.308 | 0.396 | 0.315 | 0.346 | 0.672 | 0.332
COR-L 105 | 0.786 | 0.713 | 0.859 | 0.662 | 0.725 | 0.615 | 0.856 | 0.629 | 0.632 | 0.525 | 0.484 | 0.55 | 0.436 | 0.403 | 0.317 | 0.328 | 0.329 | 0.272 | 0.573 | 0.404
NCI-H838 | 0.96 | 0.888 | 0.853 | 0.782 | 0.786 | 0.628 | 0.599 | 0.626 | 0.62 | 0.548 | 0.514 | 0.554 | 0.412 | 0.444 | 0.221 | 0.305 | 0.309 | 0.294 | 0.735 | 0.254
EKVX | 1.05 | 0.644 | 0.705 | 0.739 | 1.07 | 0.94 | 0.768 | 0.607 | 0.648 | 0.207 |  | 0.201 | 0.213 | 0.199 | 0.556 | 0.528 | 0.592 | 0.588 | 0.615 | 0.628
NCI-H1563 | 1.17 | 1.29 | 1.04 | 1 | 0.732 | 0.697 | 0.755 | 0.733 | 0.78 | 0.622 | 0.706 | 0.643 | 0.601 | 0.616 | 0.403 | 0.429 | 0.448 | 0.444 | 1.06 | 0.413
RERF-LC-KJ | 0.885 | 0.769 | 0.745 | 0.631 | 0.798 | 0.855 | 1.07 | 1 | 0.721 | 0.454 | 0.402 | 0.368 | 0.316 | 0.263 | 0.847 | 0.923 | 1.02 | 0.85 | 0.727 | 0.964
NCI-H1666 | 0.69 | 0.599 | 0.534 | 0.448 | 0.635 | 0.472 | 0.465 | 0.404 | 0.28 | 0.525 | 0.52 | 0.425 | 0.455 | 0.436 | 0.755 | 0.781 | 0.806 | 0.781 | 0.521 | 0.773
LCLC-103H | 0.915 | 0.954 | 1.09 | 1.18 | 1.12 | 1.08 | 0.902 | 0.831 | 1.25 | 0.336 | 0.313 | 0.373 | 0.355 | 0.375 | 0.419 | 0.192 | 0.478 | 0.531 | 0.986 | 0.393
